Legend:
[1] = Intrinsic clearance in human liver microsomes
[2] = Protein binding in human plasma
[3] = Intrinsic clearance in mouse liver microsome; conditions: microsomes
[4] = Apparent permeability across basal to apical membrane in human Caco-2 cells
in vivo [5] = conditions: mouse, po, 2 umol/kg
[6] = Protein binding in mouse plasma
[7] = Half life in mouse at 1 umol/kg, iv; conditions: in vivo
[8] = Clearance in mouse at 2 umol/kg, po or 1 umol/kg, iv; conditions: in vivo
[9] = Apparent permeability across apical to basal membrane in human Caco-2 cells
in vivo [10] = conditions: mouse, po, 2 umol/kg; remark: listed apart in the source
[11] = Half life in mouse at 2 umol/kg, po; conditions: in vivo

Structure (SMILES) | CLH [1] [µL/min/mg] | fraction unbound [2] | CLH [3] [µL/min/mg] | Papp B→A [4] [×10⁻⁶ cm/s] | bioavailability (in vivo [5]) [%] | fraction unbound [6] | half-life [7] [h] | clearance [8] [mL/min/kg] | Papp A→B [9] [×10⁻⁶ cm/s] | AUC (in vivo [10]) [µM·h] | half-life [11] [h]
Cc1c(CN2CCN(C(=O)C3CCCC3)[C@@H](C)C2)cc(F)cc1NC(=O)CCc1ccccc1 | 1900 |  |  |  |  |  |  |  |  |  | 
C[C@H]1CN(Cc2cc(Cl)cc(NC(=O)CC(CCC(=O)O)c3ccccc3)c2Cl)CCN1C(=O)C1CCCC1 (stereo in doubt; 12a) | 31 | 0.003 | < 10 | 45 | 100 | 0.006 | 1.5 | 8.67 | 13 | 4 | 1.5

Continued, values first:

CLH [1] [µL/min/mg] | fraction unbound [2] | CLH [3] [µL/min/mg] | Papp B→A [4] [×10⁻⁶ cm/s] | bioavailability (in vivo [5]) [%] | fraction unbound [6] | half-life [7] [h] | clearance [8] [mL/min/kg] | Papp A→B [9] [×10⁻⁶ cm/s] | AUC (in vivo [10]) [µM·h] | half-life [11] [h] | Structure (SMILES)
< 10 | 0.006 | 17 | 39 | 46 | 0.028 | 1.2 | 76.7 | 1.3 | 0.2 | 1.5 | Cc1c(CN2CCN(C(=O)C3CCCC3)[C@@H](C)C2)cc(F)cc1NC(=O)CC(CCC(=O)O)c1ccccc1 (stereo in doubt; 6a)
21 |  |  |  |  |  |  |  |  |  |  | Cc1c(CN2CCN(C(=O)C3CCCC3)[C@@H](C)C2)cc(F)cc1NC(=O)CC(CCC(=O)O)c1ccccc1 (stereo in doubt; 6b)
< 10 |  |  |  |  |  |  |  |  |  |  | C[C@H]1CN(Cc2cc(Cl)cc(NC(=O)CC(CCC(=O)O)c3ccccc3)c2Cl)CCN1C(=O)C1CCCC1 (stereo in doubt; 12b)
